In PubChem BioAssay (NCI):
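A five-concentration, 48-hour dose response in 96-well plates underlies each endpoint, interpolated linearly between surrounding concentrations. TGI: concentration producing complete growth inhibition.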 Where a SMILES comes first, the peptide text is derived from it. The star is where a group is joined. Cbz = O=C(OCc1ccccc1)*

How the values were obtained:
Experiment in all cases: NCI anticancer screen, dose series, 48 h
[1] = tested on: ACHN renal
[2] = tested on: HCC-2998 colon
[3] = tested on: HT29 colon
[4] = tested on: NCI-H226 lung
[5] = tested on: SF-539 CNS
[6] = tested on: SK-OV-3 ovarian
[7] = tested on: SNB-75 CNS
[8] = tested on: SW-620 colon
[9] = tested on: COLO 205 colon
[10] = tested on: RPMI-8226 leukemia

SMILES: CC1(N2CCOCC2)CC2C(=[N+]1[O-])CCC/C2=N/O (centres undefined)
- TGI [1]: > 100 µM
- TGI [2]: > 100 µM
- TGI [3]: > 100 µM
- TGI [4]: > 100 µM
- TGI [5]: > 100 µM
- TGI [6]: > 100 µM
- TGI [7]: > 100 µM
- TGI [8]: > 100 µM

SMILES: CCOC(=O)c1nc2ccccc2nc1Nc1cc(OC)c(OC)c(OC)c1
- TGI [1]: > 100 µM
- TGI [9]: > 100 µM
- TGI [2]: > 100 µM
- TGI [3]: > 100 µM
- TGI [10]: > 100 µM
- TGI [5]: > 100 µM
- TGI [6]: > 100 µM
- TGI [7]: > 100 µM

SMILES: C#CCOC(=O)C=[N+]=[N-]
- TGI [1]: > 10 µM
- TGI [3]: > 10 µM
- TGI [4]: > 10 µM
- TGI [10]: > 10 µM
- TGI [5]: > 10 µM
- TGI [6]: > 10 µM
- TGI [8]: > 10 µM

SMILES: Cc1cccc(C)c1NC(=S)N/C=C(\C#N)C(N)=O
- TGI [1]: > 100 µM
- TGI [9]: > 100 µM
- TGI [3]: > 100 µM
- TGI [4]: > 100 µM
- TGI [10]: > 100 µM
- TGI [5]: > 100 µM
- TGI [6]: > 100 µM
- TGI [8]: > 100 µM

SMILES: CCN(CC)C1=Nc2ccccc2-n2ccnc2C1
- TGI [1]: > 100 µM
- TGI [9]: > 100 µM
- TGI [2]: > 100 µM
- TGI [3]: > 100 µM
- TGI [4]: > 100 µM
- TGI [5]: > 100 µM
- TGI [7]: > 100 µM
- TGI [8]: > 100 µM

SMILES: O=C(CSc1nc2ccccc2c(=O)n1-c1ccccc1)N=Nc1c(O)[nH]c2ccc(Br)cc12
- TGI [1]: > 94.5 µM
- TGI [9]: > 35.6 µM
- TGI [2]: > 100 µM
- TGI [3]: 3.7 µM
- TGI [10]: > 38 µM
- TGI [5]: 6.13 µM
- TGI [6]: 13.1 µM
- TGI [7]: 11.5 µM
- TGI [8]: > 51.2 µM

SMILES: OC1C2CN3CCN(C2)CC1(c1ccccc1)C3 (centres undefined)
- TGI [1]: > 100 µM
- TGI [9]: > 100 µM
- TGI [3]: > 100 µM
- TGI [4]: > 100 µM
- TGI [10]: > 100 µM
- TGI [5]: > 100 µM
- TGI [7]: > 100 µM
- TGI [8]: > 100 µM

SMILES: CC(C)(C)c1ccc(O)c(C(O)c2ccccn2)c1 (centres undefined)
- TGI [1]: > 100 µM
- TGI [9]: > 100 µM
- TGI [2]: 85.9 µM
- TGI [3]: > 100 µM
- TGI [4]: > 100 µM
- TGI [10]: > 100 µM
- TGI [5]: > 100 µM
- TGI [7]: > 100 µM
- TGI [8]: > 100 µM

SMILES: COc1ccc(OC)c([N+](=O)[O-])c1-c1nc2sc(Cl)cn2c1/C=N/N=C(N)N
- TGI [1]: 86.3 µM
- TGI [9]: > 100 µM
- TGI [2]: 35.6 µM
- TGI [3]: 34 µM
- TGI [4]: 44.1 µM
- TGI [10]: > 100 µM
- TGI [5]: 53.5 µM
- TGI [7]: 24.9 µM
- TGI [8]: 55 µM

SMILES: CCOc1cc2c(cc1OC)c[n+](C)c1c3cc(OC)c(OC)cc3ccc21
- TGI [1]: > 100 µM
- TGI [9]: > 100 µM
- TGI [2]: > 100 µM
- TGI [3]: > 100 µM
- TGI [4]: 99 µM
- TGI [10]: > 100 µM
- TGI [5]: > 100 µM
- TGI [6]: > 100 µM
- TGI [8]: > 93.5 µM

SMILES: CCOC(=O)CCC(NC(=O)C(CC(=O)OC)NC(=O)OCc1ccccc1)C(=O)NC(CC(=O)OC)C(=O)NC(CCC(=O)OCC)C(=O)NC(CC(=O)OC)C(=O)NC(CCC(=O)OCC)C(=O)NC(CC(=O)OCC)C(=O)OCC (centres undefined) (Cbz-D(OMe)E(OEt)D(OMe)E(OEt)D(OMe)E(OEt)D(OEt)-OEt; configuration not given here)
- TGI [1]: > 100 µM
- TGI [2]: > 100 µM
- TGI [3]: > 100 µM
- TGI [4]: > 100 µM
- TGI [10]: > 100 µM
- TGI [8]: > 100 µM

SMILES: CCOC(=O)c1ccc(N2C(=O)/C(=C/c3ccc(N(CCC#N)CCC#N)cc3)N=C2c2cc([N+](=O)[O-])ccc2Cl)cc1
- TGI [1]: > 100 µM
- TGI [9]: > 100 µM
- TGI [2]: > 100 µM
- TGI [4]: > 100 µM
- TGI [10]: > 100 µM
- TGI [5]: > 100 µM
- TGI [6]: > 100 µM
- TGI [8]: > 100 µM

SMILES: CCOC(=O)c1nc(SC)sc1NC(=O)c1ccc(OC)cc1
- TGI [1]: > 100 µM
- TGI [9]: > 100 µM
- TGI [2]: > 100 µM
- TGI [3]: > 100 µM
- TGI [4]: > 100 µM
- TGI [10]: > 100 µM
- TGI [5]: 34.9 µM
- TGI [6]: > 100 µM
- TGI [8]: > 100 µM

SMILES: Cc1cc(C)c2c(-c3ccccc3)cc(=O)[nH]c2c1
- TGI [1]: > 100 µM
- TGI [9]: > 100 µM
- TGI [2]: > 100 µM
- TGI [3]: > 100 µM
- TGI [4]: > 100 µM
- TGI [10]: > 100 µM
- TGI [6]: > 100 µM
- TGI [7]: > 100 µM
- TGI [8]: > 100 µM

SMILES: Cc1cc2c3c(c1)S(=O)(=O)c1cc(Cl)ccc1N3CCC2
- TGI [1]: > 100 µM
- TGI [9]: > 100 µM
- TGI [2]: > 100 µM
- TGI [3]: > 100 µM
- TGI [4]: > 100 µM
- TGI [5]: > 100 µM
- TGI [6]: > 100 µM
- TGI [7]: > 100 µM
- TGI [8]: > 100 µM

SMILES: O=C1C(NS(=O)(=O)c2ccccc2)=C(n2ccnc2)C(=O)c2ccccc21
- TGI [1]: > 100 µM
- TGI [9]: > 100 µM
- TGI [3]: > 100 µM
- TGI [4]: > 100 µM
- TGI [10]: > 100 µM
- TGI [5]: > 100 µM
- TGI [6]: > 100 µM
- TGI [7]: > 100 µM
- TGI [8]: > 100 µM

SMILES: O=c1[nH]c2c(C(F)(F)F)c(Cl)c(-c3ccccc3)nc2o1
- TGI [1]: > 100 µM
- TGI [9]: 28.1 µM
- TGI [2]: > 100 µM
- TGI [3]: 51.6 µM
- TGI [4]: > 100 µM
- TGI [6]: 64.7 µM
- TGI [8]: > 100 µM

SMILES: CCN1CC2=C(OC(N)=C(C#N)C2c2ccc(Cl)cc2)/C(=C/c2ccc(Cl)cc2)C1 (centres undefined)
- TGI [1]: 45.9 µM
- TGI [9]: > 100 µM
- TGI [2]: > 100 µM
- TGI [3]: > 100 µM
- TGI [4]: 94.3 µM
- TGI [10]: 85.1 µM
- TGI [6]: 81.5 µM
- TGI [7]: 34.2 µM
- TGI [8]: > 100 µM
